# Measurements from article PMC9238271, “The quorum sensing peptide EntF* promotes colorectal cancer metastasis in mice: a new factor in the host-microbiome interaction” (BMC Biology, 2022).
# “And” between values parts separate entries of the source, which are not always exact repeats. Identical values can stand only once.
# Columns and labels:
# [1] = In vitro metabolization of EntF: formation of EntF* in colon tissue homogenate; type: in vitro ADME, C57BL/6 female mice
# Description: Krebs-Henseleit (KH) buffer (Sigma-Aldrich, Belgium) was prepared by dissolving the powdered medium in 900 mL water while stirring. Once the powder was completely dissolved, 0.3790 g CaCl2•2H2O and 2.098 g NaHCO3 were added to the solution. NaOH or HCl was used to adjust the pH to 7.4. The solution was brought to final volume (1000 mL) with ultrapure water.
# For the preparation of colon tissue homogenates for EntF in vitro metabolization study, colons were collected from two untreated C57BL/6 female mice after cervical dislocation. After cleaning and rinsing the organs with ice-cold KH buffer, colons were cut into small pieces and transferred into 15 mL tubes containing 5 mL ice-cold KH buffer. Colon tissues were homogenized for 1 min. Larger particles were allowed to sediment for about 30 min at 5 °C, and then approximately 2 mL of the middle layer of each tube was transferred into a 2 mL Eppendorf tube and stored at − 35 °C. Before use, the homogenate was diluted to a final protein concentration of 0.6 mg/mL.
# (§1) To avoid the absorption of EntF* onto plasticware and glassware, all tubes and containers were coated with a BSA-based anti-adsorption solution before use.
# Five hundred microliters of tissue homogenate were mixed with 400 μL of pre-warmed KH buffer. Then, 100 μL of KH buffer (blank) or 1 mg/mL EntF peptide solution (test) were added to the diluted homogenate and incubated at 37 °C. […] After centrifugation at 16,000g for 30 min at 5 °C, supernatants were analyzed by LC1-MS1 for EntF* quantification.
# (§2) EntF* was detected and quantified on a Waters Acquity® UPLC H-class system, connected to a Waters Xevo™ TQ-S triple quadrupole mass spectrometer with electrospray ionization (operated in positive ionization mode). Autosampler tray and column oven were kept at 10 ± 5 °C and 60 ± 5 °C, respectively. Chromatographic separation was achieved on a Waters Acquity® UPLC BEH Peptide C18 column (300 Å, 1.7 μm, 2.1 mm × 100 mm). The mobile phases consisted of 93/2/5 water/acetonitrile/DMSO (V/V/V) containing 0.1% formic acid (mobile phase A) and 2/93/5 water/acetonitrile/DMSO (V/V/V) containing 0.1% formic acid (mobile phase B), and the flow rate was set to 0.5 mL/min. A 10-μL aliquot from each sample was injected. The gradient program started with 80% of mobile phase A for 1 min, followed by a linear gradient to 40% of mobile phase A for 3.5 min. Gradient was then changed to 14.2% mobile phase A at 5 min, followed by a 1 min equilibration, before starting conditions were applied. EntF* retention time was between 4.25 and 4.45 min.
# An optimized capillary voltage of 3.00 kV, a cone voltage of 20.00 V, and a source offset of 50.0 V were used. Acquisition was done in the MRM mode. The selected precursor ion for EntF* was m/z 865.7 with two selected product ions at m/z 202.08 (36 eV, b2 fragment) as quantifier and m/z 315.17 (31 eV, b3 fragment) as qualifier.
# [2] = Caco-2 monolayer permeability assay; type: in vitro ADME; details: Caco-2 Transwell A -> B, 1 µM EntF* apical, HBSS, LC1-MS1; average of AB1-AB6; read-out: Kapp, average
# Description: as §1
# (§3) HCT-8, HT-29, and HT-116 cells were grown in DMEM medium supplied with 10% fetal bovine serum (FBS) and 1% penicillin-streptomycin. Caco-2 cells were grown in DMEM medium supplied with 10% FBS, 1% non-essential amino acid NEAA), and 1% penicillin-streptomycin. Cells were cultured at 37 °C and 5% CO2. As cells reached confluency, they were detached using 0.25% Trypsin-EDTA.
# (§4) Caco-2 cells were seeded on Transwell polycarbonate membrane filters (0.4 μm pore size, Corning, Germany) at a density of 2.6 × 10^5 cells/cm^2 and permeability tests performed as described by Hubatsch et al.. Cells were submerged with Hank’s balanced salt solution (HBSS), and transepithelial electrical resistance (TEER) was measured before and after the experiment. Peptide solution (1 μM) was added to the apical chamber, and 300 μL aliquots were taken after 30, 60, 90, and 120 min of incubation. Samples were analyzed using LC1-MS1. Linear curve fitting was used to calculate the apparent permeability coefficient (Papp).
# as §2
# [3] = system: Caco-2 monolayer; test: Caco-2 monolayer permeability assay; type: in vitro ADME; details: for Kapp / Cumulative conc / Cumulative amount / Mean cumulative amount / Mean cumulative concentration / % Dose applied / Conc in receiver compartment: Caco-2 Transwell A -> B; for Kapp / Cumulative conc / Cumulative amount / Mean cumulative amount / Mean cumulative concentration: 1 µM EntF* apical; for Kapp / Conc in receiver compartment: LC1-MS1; for Cumulative conc / Cumulative amount / % Dose applied / Conc in receiver compartment: individual replicates A -> B (1)-(6); for Mean cumulative amount / Mean cumulative concentration: mean of n = 6; for % Dose applied: amount applied 0.4 nmol; for Conc in receiver compartment: dose solution 1 µM EntF* (0.4 nmol applied), cell vol 1.200 ml
# Description: as §1, §3, §4, §2
# [4] = Colon, Time 0, initial concentration EntF 31.82 µM
# [5] = Colon, Time 1, initial concentration EntF 31.82 µM
# [6] = Colon, Time 5, initial concentration EntF 31.82 µM
# [7] = Colon, Time 10, initial concentration EntF 31.82 µM
# [8] = Colon, Time 30, initial concentration EntF 31.82 µM
# [9] = Colon, Time 60, initial concentration EntF 31.82 µM
# [10] = Colon, Time 120, initial concentration EntF 31.82 µM
# [11] = Colon, Time 180, initial concentration EntF 31.82 µM
smiles,measurement,setting,value
"CC(C)C[C@@H]1NC(=O)[C@H](CO)NC(=O)[C@H](Cc2ccccc2)NC(=O)[C@H](C(C)C)NC(=O)[C@@H](NC(=O)[C@H](CCC(=O)O)NC(=O)[C@@H](NC(=O)[C@H](CC(C)C)NC(=O)[C@H](CC(N)=O)NC(=O)[C@@H](N)CO)C(C)C)CSSC[C@@H](C(=O)N[C@@H](CC(N)=O)C(=O)O)NC(=O)[C@H](CCCCN)NC(=O)[C@H](CCCCN)NC(=O)[C@H](Cc2ccccc2)NC1=O (single isomer, unassigned) [EntF*]",Stability of EntF* in Colon tissue,[1]; Colon tissue,EntF* is stable in Colon tissue
same,EntF* Conc,[1]; [4],0.00 µM
same,"EntF* without metabolisation, Conc",[1]; [4],0.00 µM
same,EntF*/EntF %,[1]; [4],0.00%
same,EntF* Conc,[1]; [5],0.0286 µM
same,EntF*/EntF %,[1]; [5],0.09%
same,EntF* Conc,[1]; [6],0.20 µM
same,EntF*/EntF %,[1]; [6],0.62%
same,EntF* Conc,[1]; [7],0.50 µM
same,EntF*/EntF %,[1]; [7],1.56%
same,EntF* Conc,[1]; [8],0.94 µM
same,EntF*/EntF %,[1]; [8],2.94%
same,EntF* Conc,[1]; [9],2.03 µM
same,EntF*/EntF %,[1]; [9],6.39%
same,EntF* Conc,[1]; [10],3.15 µM
same,EntF*/EntF %,[1]; [10],9.89%
same,EntF* Conc,[1]; [11],5.17 µM
same,EntF*/EntF %,[1]; [11],16.25%
same,formation rate of EntF* (from EntF) in colonic tissues,"[1]; mouse colon tissue homogenate (0.6 mg/mL protein) 500 μL + 400 μL Krebs-Henseleit buffer pH 7.4 + 100 μL 1 mg/mL EntF, 37 °C, aliquots 0-180 min, LC1-MS1, mean ± SEM, n = 7",0.11 ± 0.01 % min^−1
same,"Formation rate, Colon tissue, Average","[1]; mouse colon tissue homogenate, Krebs-Henseleit buffer pH 7.4, 37 °C, LC1-MS1, average of X1-X7",0.11 %*min-1
same,"Formation rate, Colon tissue","[1]; mouse colon tissue homogenate, Krebs-Henseleit buffer pH 7.4, 37 °C, LC1-MS1, replicate X1",0.0898 %*min-1
same,"Formation rate, Colon tissue","[1]; mouse colon tissue homogenate, Krebs-Henseleit buffer pH 7.4, 37 °C, LC1-MS1, replicate X2",0.1249 %*min-1
same,"Formation rate, Colon tissue","[1]; mouse colon tissue homogenate, Krebs-Henseleit buffer pH 7.4, 37 °C, LC1-MS1, replicate X3",0.1563 %*min-1
same,"Formation rate, Colon tissue","[1]; mouse colon tissue homogenate, Krebs-Henseleit buffer pH 7.4, 37 °C, LC1-MS1, replicate X4",0.0981 %*min-1
same,"Formation rate, Colon tissue","[1]; mouse colon tissue homogenate, Krebs-Henseleit buffer pH 7.4, 37 °C, LC1-MS1, replicate X5",0.1065 %*min-1
same,"Formation rate, Colon tissue","[1]; mouse colon tissue homogenate, Krebs-Henseleit buffer pH 7.4, 37 °C, LC1-MS1, replicate X6",0.0824 %*min-1
same,"Formation rate, Colon tissue","[1]; mouse colon tissue homogenate, Krebs-Henseleit buffer pH 7.4, 37 °C, LC1-MS1, replicate X7",0.0903 %*min-1
same,Papp A→B,[2],0.00367 ×10⁻⁶ cm/s
same,Kapp,"[3]; HBSS, replicate AB1",2.13e-07 cm/min
same,Kapp,"[3]; HBSS, replicate AB2",1.88e-07 cm/min
same,Kapp,"[3]; HBSS, replicate AB3",2.21e-07 cm/min
same,Kapp,"[3]; HBSS, replicate AB4",2.07e-07 cm/min
same,Kapp,"[3]; HBSS, replicate AB5",2.81e-07 cm/min
same,Kapp,"[3]; HBSS, replicate AB6",2.12e-07 cm/min
same,Cumulative conc,"[3]; HBSS, time 30 min",43.732 pM and 39.850 pM and 48.195 pM and 54.684 pM and 29.485 pM and 29.005 pM
same,Cumulative amount,"[3]; HBSS, time 60 min",30.299 amol and 45.664 amol and 39.602 amol and 52.014 amol and 67.922 amol and 37.955 amol
same,Cumulative conc,"[3]; HBSS, time 60 min",25.249 pM and 38.053 pM and 33.002 pM and 43.345 pM and 56.602 pM and 31.630 pM
same,Cumulative amount,"[3]; HBSS, time 90 min",46.426 amol and 46.765 amol and 42.758 amol and 52.183 amol and 67.818 amol and 43.254 amol
same,Cumulative conc,"[3]; HBSS, time 90 min",38.688 pM and 38.971 pM and 35.631 pM and 43.485 pM and 56.515 pM and 36.045 pM
same,Cumulative amount,"[3]; HBSS, time 120 min",37.088 amol and 40.742 amol and 47.116 amol and 44.500 amol and 55.592 amol and 38.733 amol
same,Cumulative conc,"[3]; HBSS, time 120 min",30.906 pM and 33.952 pM and 39.263 pM and 37.084 pM and 46.326 pM and 32.277 pM
same,Mean cumulative amount,[3]; time 30 min,48.990 amol
same,Mean cumulative concentration,[3]; time 30 min,40.825 pM
same,Mean cumulative amount,[3]; time 60 min,45.576 amol
same,Mean cumulative concentration,[3]; time 60 min,37.980 pM
same,Mean cumulative amount,[3]; time 90 min,49.867 amol
same,Mean cumulative concentration,[3]; time 90 min,41.556 pM
same,Mean cumulative amount,[3]; time 120 min,43.962 amol
same,Mean cumulative concentration,[3]; time 120 min,36.635 pM
same,% Dose applied,[3]; time 30 min,13.120% and 11.955% and 14.459% and 16.405% and 8.846%
same,% Dose applied,[3]; time 60 min,7.575% and 11.416% and 9.901% and 13.004% and 16.980% and 9.489%
same,% Dose applied,[3]; time 90 min,11.606% and 11.691% and 10.689% and 13.046% and 16.954% and 10.813%
same,% Dose applied,[3]; time 120 min,9.272% and 10.185% and 11.779% and 11.125% and 13.898% and 9.683%
same,Conc in receiver compartment,"[3]; HBSS, time 0 min",0.0217667 nM and 0.0386367 nM and 0.0252731 nM and 0.06096 nM and 0.0351635 nM and 0.0240173 nM
same,Conc in receiver compartment,"[3]; HBSS, time 30 min",0.0382904 nM and 0.0301911 nM and 0.0418772 nM and 0.0394437 nM and 0.0206944 nM and 0.0230007 nM
same,Conc in receiver compartment,"[3]; HBSS, time 60 min",0.0134944 nM and 0.0230389 nM and 0.015795 nM and 0.0265575 nM and 0.0315007 nM and 0.0176651 nM
same,Conc in receiver compartment,"[3]; HBSS, time 90 min",0.02356 nM and 0.0181966 nM and 0.0144756 nM and 0.0200585 nM and 0.0235388 nM and 0.017664 nM
same,Conc in receiver compartment,"[3]; HBSS, time 120 min",0.009888 nM and 0.0086284 nM and 0.0144888 nM and 0.008642 nM and 0.007466 nM and 0.009481 nM
same,apparent permeability coefficient (Papp),"[3]; Caco-2 monolayer on Transwell polycarbonate filters (0.4 μm), apical to basolateral, HBSS, 1 μM peptide in apical chamber, aliquots 30, 60, 90, 120 min, LC1-MS1, linear curve fitting, mean ± SEM, n = 6",3.67 ± 0.22 × 10^−9 cm s^−1
